This is an account of results in patent US20230250096A1, “SUBSTITUTED PHENYL-1H-PYRROLO[2,3-c] PYRIDINE DERIVATIVES” (Janssen Pharmaceutica NV, priority 2021, published 2023).

Holding throughout (assay type): cell-based, human
In assay [1] the test system is KO-52 cells. The experiment in a line: Proliferation assay (spheroid confluence, 8 days), KO-52 control cell line. As to conditions: Homo sapiens, read-out: spheroid assay_KO-52 IC50. The method in brief:
(§1)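 Absolute IC50 derived from spheroid confluence imaged on day 8, scaled between DMSO (0%) and a cytotoxic low control such as 1 μM staurosporin, fitted with variable slope, bounds fixed at 0 and 100%. Seeding 200 cells/well (300 for KO-52), ultra-low attachment plates, 0.3% DMSO, 37° C.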

Assay [2] concerns MOLM14 cells. The assay can be described thus: Proliferation assay (spheroid confluence, 8 days), MOLM14. As to conditions: Homo sapiens, MOLM-14, MOLM14; read-out: spheroid assay_MOLM14 IC50. The method in brief:
as §1

In assay [3] the test system is MEIS1 mRNA expression. The experiment in a line: MEIS1 mRNA expression assay (Quantigene Singleplex) in MOLM14 cells. As to conditions: Homo sapiens, MOLM-14, 48 h, 48 hours incubation. The method in brief: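 Read-out: MEIS1 transcript counts, background-subtracted and divided by RPL28, expressed as fold change over DMSO-treated cells, then dose-response modelled for IC50. MOLM14 cells (3,750/well) received graded compound for 48 h before lysis and QuantiGene hybridization at 55 °C.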

Molecules are shown by their SMILES.

For orientation: IC50 means the point on the concentration scale where inhibition reaches its midpoint. As for `CNC(=O)c1cncc(N2CCC(N3CC(Cc4cn(-c5ccc(F)cc5C(=O)N(C)C(C)C)c5cncc(C)c45)C3)CC2)n1` [Compound 75], the values for the IC50 in assay [1], in assay [2] and in assay [3] were 2000 nM, 9 nM and 119 nM, respectively.

As for `Cc1cncc2c1c(C[C@@H]1CCN(C[C@H]3CCCCN3)C1)cn2-c1ccc(F)cc1C(=O)N(C)C(C)C` [Compound 199], the half-inhibitory concentration (IC50) in assay [1] is 11800 nM; in assay [2], 126 nM; in assay [3] it was 338 nM.
